Results published in US7220554B2, “Methods for identifying inhibitors” (priority 2003, dated 2007).
Entries after “also recorded” stand apart in the source; their conditions may differ. Non-standard residues stand in square brackets, D forms with d. Residues, ends and D or L forms follow the SMILES beside them. *: point of attachment. Nle = CCCC[C@H](N)C(=O)O; Cbz = O=C(OCc1ccccc1)*; OtBu = CC(C)(C)O*

Columns and labels:
[1] = system: Vif-dependent down modulation of APOBEC3G-Myc; assay: Western immunoblotting of APOBEC3G-Myc in cotransfected 293T cultures that contain or lack Vif; format: cell-based, human; conditions: for quantity of APOBEC3G-Myc in the cultures that contained Vif: incubated 10 hours, FIG. 11A
Excerpt: (§1) Expression vectors: pHIV-gpt(wt) and its derivative pHIV-gpt(Δvif) were previously described (Madani & Kabat, J. Virol. 72, 10251–10255, 1998; Page et al., J Virol 64, 5270–5276, 1990; Madani & Kabat, J. Virol. 74, 5982–5987, 2000). pcDNA3.1-Vif was donated by D. Gabuzda (Dana-Farber Cancer Institute, Harvard, Boston, Mass.). Rev-dependent plasmids for expression of the Vif mutants Δ2, Δ5, Δ6, Δ7, Δ9, Δ10, Δ12 and Δ13 (Simon et al., J. Virol. 73, 2675–2681, 1999) were provided by M. Malim (Medical Research Council, Cambridge, UK) and were coexpressed with pHIV-gpt(Δvif). APOBEC3G cDNA was cloned from H9 cells (nonpermissive) by reverse transcriptase-PCR (Barnes, Proc. Natl. Acad. Sci. USA 91, 2216–2220, 1994; Sambrook et al., Molecular Cloning. A Laboratory Manual, Chapter 14, 14.5–14.34., CSHL Press, Cold Spring Harbor, 1989) using primers complementary to the 5′ and 3′ ends of APOBEC3G coding region (Sheehy et al., Nature 418, 646–650, 2002) (upstream primer, 5′-[…]-3′ (SEQ ID NO: 15) containing an XhoI restriction site [underlined]; downstream primer, 5′-[…]-3′ (SEQ ID NO: 16) containing a SfuI restriction site [underlined]). The cDNA was cloned between XhoI and SfuI into the pcDNA3.1/Myc-His C mammalian expression vector (Invitrogen) to obtain the pcDNA3.1-APOBEC3G-Myc vector. The pSVIIIEnv vector was used to pseudotype HIV-gpt virions (Helseth et al., J. Virol. 64, 2416–2420, 1990). Transfections employed PolyFect reagent (Qiagen, Inc.) according to the manufacturer's instructions, with equimolar ratios of all plasmids and with harvests after 36 hours unless otherwise mentioned. Viruses: HIV-gpt virions were produced and titered as previously described (Page et al., J Virol 64, 5270–5276, 1990; Page et al., J Virol 66, 524–533, 1992; Platt et al., J. Virol. 75, 12266–12278, 2001). For viral purifications, 27 ml of the virus-containing media from 293T cells were pelleted through 2 ml of a 20% sucrose at 100,000 g for 1.5 hours. Virions were resuspended in TSE (0.1 M NaCl, 1 mM EDTA, 0.01M Tris-Cl, pH 7.4), and centrifuged to equilibrium in 5 ml 20–60% sucrose gradients in TSE at 200,000 g for 2.5 hours. Virus-containing fractions were detected by immunoblotting using HIV Immunoglobulin serum (AIDS Research & Reference Reagent Program, Division of AIDS, NIAID, NIH: contributed by NABI and NHLBI). Peak fractions were pooled, diluted with TSE, and pelleted through 20% sucrose at 100,000 g for two hours. Analysis of proteins and RNAs: Extracts of cotransfected 293T and COS7 cultures were prepared using either TX (1% Triton X-100, 150 mM NaCl, 10 mM Tris-Cl, pH 7.5, 1 mM MgCl) or RIPA (50 mM Tris-Ci pH 7.4, 1% Nonidet P40, 0.1% sodium deoxycholate, 150 mM NaCl) buffers with complete protease inhibitors (Roche), followed by centrifugation at 1,500 g for 5 minutes to sediment nuclei. Extracts were adjusted to equivalent protein concentrations using the Bradford reagent (BioRad Laboratories), and equal aliquots were then used for Western immunoblotting (Marin et al., J. Virol. 74, 8085–8093, 2000) or for immunoprecipitations (Klippel et al., Mol. Cell. Biol. 14, 2675–2685, 1994) using the antibodies HIV-1 HXB2 Vif rabbit antiserum #2221, (AIDS Research and Reference Reagent Program, Division of AIDS, NIAID, NIH: contributed by Dr. D. Gabuzda), Myc-specific monoclonal antibody clone 9E10 (Sigma) (Marin et al., J. Virol. 74, 8085–8093, 2000), or the ubiquitin-specific mouse monoclonal antibody (Zymed). […] Where indicated, cultures were preincubated with 50 μM concentrations of the proteasome inhibitors ALLN, MG-132, or Proteasome Inhibitor-I (Calbiochem).

[2] = system: total cellular polyubiquitinated proteins; assay: Western blot of total cell culture extracts with ubiquitin-specific antibody; format: cell-based, human; conditions: 293T; for amounts of total polyubiquitinated proteins (inhibitor activity in cultures with and without Vif): 50 μM inhibitor; for quantities of total cellular polyubiquitinated proteins (inhibitor activity in both cultures): preincubated 6 hours, FIG. 9B
Excerpt: as §1

[3] = system: APOBEC3G-Myc; assay: Immunofluorescence microscopy of Vif and APOBEC3G-Myc in cotransfected COS7 cells; format: cell-based, African green monkey; conditions: ALLN in DMSO, FIG. 5B
Procedure: For immunofluorescence, COS7 cells were used because they are more adherent than 293T cells. Cells cultured in Permanox chamber slides (Nalge Nunc International) were fixed in 5% formaldehyde and 2% sucrose in PBS (Invitrogen) at room temperature for 20 minutes, and permeabilized with 1% Triton X-100 in PBS with 10% sucrose for 30 minutes. Primary antibodies were Vif antiserum #2221 or the Myc-specific monoclonal antibody 9E10. Secondary fluorescent antibodies were Alexa Fluor 488 goat anti-rabbit IgG(H+L) and Alexa Fluor 594 goat anti-mouse IgG (H+L) (Molecular Probes Inc), which reacted only with their species-specific primary antibodies. Slides were mounted in FluoroGuard (BioRad Laboratories), and observed with a Zeiss Axiovert 200M deconvolution microscope. The percentage of double-positive cells in FIG. 5B is defined as the percentage of the Vif-positive cells and that contained APOBEC3G-Myc. RNA extraction and Northern blot analyses were previously described (Tailor et al., Proc. Natl. Acad. Sci. USA 96, 927–932, 1999). A cDNA probe for the S2 ribosomal protein was used as a loading control.

[4] = system: polyubiquitinated APOBEC3G; assay: Ni-NTA purification of APOBEC3G-Myc in 8M urea and immunoblotting with ubiquitin-specific antibody; format: cell-based, human; conditions: 293T; ALLN 10 hours; FIG. 11B
Excerpt: Expression vectors: pHIV-gpt(wt) and its derivative pHIV-gpt(Δvif) were previously described (Madani & Kabat, J. Virol. 72, 10251–10255, 1998; Page et al., J Virol 64, 5270–5276, 1990; Madani & Kabat, J. Virol. 74, 5982–5987, 2000). pcDNA3.1-Vif was donated by D. Gabuzda (Dana-Farber Cancer Institute, Harvard, Boston, Mass.). Rev-dependent plasmids for expression of the Vif mutants Δ2, Δ5, Δ6, Δ7, Δ9, Δ10, Δ12 and Δ13 (Simon et al., J. Virol. 73, 2675–2681, 1999) were provided by M. Malim (Medical Research Council, Cambridge, UK) and were coexpressed with pHIV-gpt(Δvif). APOBEC3G cDNA was cloned from H9 cells (nonpermissive) by reverse transcriptase-PCR (Barnes, Proc. Natl. Acad. Sci. USA 91, 2216–2220, 1994; Sambrook et al., Molecular Cloning. A Laboratory Manual, Chapter 14, 14.5–14.34., CSHL Press, Cold Spring Harbor, 1989) using primers complementary to the 5′ and 3′ ends of APOBEC3G coding region (Sheehy et al., Nature 418, 646–650, 2002) (upstream primer, 5′-[…]-3′ (SEQ ID NO: 15) containing an XhoI restriction site [underlined]; downstream primer, 5′-[…]-3′ (SEQ ID NO: 16) containing a SfuI restriction site [underlined]). […] Virus-containing fractions were detected by immunoblotting using HIV Immunoglobulin serum (AIDS Research & Reference Reagent Program, Division of AIDS, NIAID, NIH: contributed by NABI and NHLBI). […]

[5] = system: Vif-mediated elimination of YFP-APOBEC3G; assay: Fluorescence of YFP-APOBEC3G in 293T cultures cotransfected with Vif; format: cell-based, human; conditions: ALLN for eight hours
Excerpt: Using methods essentially similar to those described in Example 1, a vector was constructed that encodes a chimeric protein containing the yellow fluorescent protein (YFP) at the amino terminus and APOBEC3G at the carboxyl terminus (YFP-APOBEC3G; SEQ ID NOs: 3 and 4). Cotransfection of plasmids that encode this chimera and Vif into human 293T cell cultures results in only a few fluorescent cells, consistent with a Vif-induced degradation (FIG. 13A, top two panels). In contrast, cotransfection with a vector lacking Vif results in a much larger fraction of fluorescent cells.

SMILES	control protein α-tubulin ([1]; 50 μM inhibitor, 6–10 hour)	quantities of APOBEC3G-Myc in the cultures that contained Vif ([1]; 50 μM inhibitor, 6–10 hour)	quantities of APOBEC3G-Myc in the cultures that lacked Vif ([1]; 50 μM inhibitor, 6–10 hour)	quantity of APOBEC3G-Myc in the cultures that contained Vif [1]	quantities of APOBEC3G-Myc in the cultures that contained Vif ([1]; preincubated 6 hours, FIG. 9B)	quantities of APOBEC3G-Myc in the cultures that lacked Vif ([1]; preincubated 6 hours, FIG. 9B)	amounts of total polyubiquitinated proteins (inhibitor activity in cultures with and without Vif) [2]	quantities of total cellular polyubiquitinated proteins (inhibitor activity in both cultures) [2]	percentage of cells that coexpressed wild-type Vif and APOBEC3G-Myc [3]	amount of polyubiquitinated APOBEC3G-Myc, effect of proteasome inhibitor [4]	cells with YFP-APOBEC3G fluorescence in the culture that contains Vif [5]
CCCC[C@@H](C=O)NC(=O)[C@H](CC(C)C)NC(=O)[C@H](CC(C)C)NC(C)=O [ALLN] (Ac-Leu-Leu-[Nle]-aldehyde)	no effect	increased the quantities of APOBEC3G-Myc	not in the cultures that lacked Vif	increased the quantity of APOBEC3G-Myc	increased the quantities of APOBEC3G-Myc	not in the cultures that lacked Vif	active in both cultures	active in both cultures	dramatic increase in coexpression; also recorded: this decrease was alleviated by ALLN	substantially increased; also recorded: greatly increased	reverses the Vif-dependent elimination of the chimeric protein; also recorded: blocks Vif-mediated elimination of YFP-APOBEC3G; also recorded: accumulate in many more cells
CC(C)C[C@@H](C=O)NC(=O)[C@H](CC(C)C)NC(=O)[C@H](CC(C)C)NC(=O)OCc1ccccc1 [MG-132] (Cbz-Leu-Leu-Leu-aldehyde)	no effect	increased the quantities of APOBEC3G-Myc	not in the cultures that lacked Vif	increased the quantity of APOBEC3G-Myc	increased the quantities of APOBEC3G-Myc	not in the cultures that lacked Vif	active in both cultures	active in both cultures			
CC[C@H](C)[C@H](NC(=O)OCc1ccccc1)C(=O)N[C@@H](CCC(=O)OC(C)(C)C)C(=O)N[C@@H](C)C(=O)N[C@H](C=O)CC(C)C [Proteasome Inhibitor-I] (Cbz-IE(OtBu)AL-aldehyde)	no effect	increased the quantities of APOBEC3G-Myc	not in the cultures that lacked Vif	increased the quantity of APOBEC3G-Myc	increased the quantities of APOBEC3G-Myc	not in the cultures that lacked Vif	active in both cultures	active in both cultures			
